The test system of assay [1] is HCT116. Put plainly: efficacy (fitted maximal change in viability relative to DMSO control); higher = less cytotoxic (negative = loss of viability). Particulars: 48 h.
For assay [2], the system named is HCT116. As to the kind of experiment: AC50 cell viability (CellTiter-Glo); higher = less potent. Particulars: 48 h. On the technique in general: In ATP-based viability assays light output follows the ATP content of the culture.
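Throughout, for AC50 cell viability (CellTiter-Glo): HCT116 colorectal carcinoma cells screened at five concentrations per compound, luminescent viability scaled between DMSO wells and empty wells on each plate, curves fitted per compound.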
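Throughout, for efficacy (fitted maximal change in viability relative to DMSO control): Luminescence-based viability readout, five doses per compound, normalized against on-plate DMSO and empty-well controls, followed by dose-response curve fitting for every drug.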

For `c1ccc2c(-c3cnn4cc(-c5ccc(OCCN6CCOCC6)cc5)cnc34)ccnc2c1`, the efficacy in the assay with HCT116 [1] was -84.3%. The AC50 cell viability with HCT116 [2] turned out to be 6.45 µM.

In the case of `CC(C)c1noc(N2CCC(COc3ccc(-c4ccc([S+](C)(=O)[O-])cc4)nc3)CC2)n1`, the efficacy in the assay with HCT116 [1] is -32.3%. In the assay on HCT116 [2], the AC50 cell viability is 3.72 µM.

For `Cc1c(C(=O)Nc2cccc(C(F)(F)F)c2)cc(-c2ccccc2)n1CCCN1CCOCC1`, the efficacy with HCT116 [1] is -75.8%. For the same molecule, the AC50 cell viability with HCT116 [2] was 20.9 µM.

Consider `Cc1cccc(Nc2nc(N[C@@H]3CCCC[C@@H]3N)ncc2C(N)=O)c1`, for which the efficacy with HCT116 [1] was -94.8%. In the assay with HCT116 [2], this molecule yielded an AC50 cell viability of 7.42 µM.

`Cc1cccc(Nc2nc(-c3ccncc3)cs2)c1`: the efficacy in the assay with HCT116 [1] is -69.9%. This molecule came in with an AC50 cell viability in the assay with HCT116 [2] of 18.6 µM.

Take `CCN(CC)CCOC1=CC=C(NC2=NC=C3\C=C(/C(=O)N(C)C3=N2)C4=C(Cl)C=CC=C4Cl)C=C1`: the efficacy in the assay with HCT116 [1] was -86.9%. Further, the AC50 cell viability in the assay with HCT116 [2] is 1.18 µM.

Consider `CN(C)CCCN\C1=C\2C(=O)N(C)C(=O)\N=C2N(C)C3=C1C=CC=C3`, for which the efficacy in the assay on HCT116 [1] was -67.5%. The molecule further displayed an AC50 cell viability in the assay on HCT116 [2] of 5.25 µM.

With `CN(C)CCOc1ccc(-c2nc(-c3ccncc3)c(-c3ccc4c(c3)CC/C4=N\O)[nH]2)cc1`, in the assay with HCT116 [1], the efficacy was -134%. The AC50 cell viability with HCT116 [2] was determined as 11.8 µM.

As to `COc1ccccc1[C@H](c1cccc2ccccc12)[C@@](C)(C#N)C(=O)N1CCC(c2cccc(C(F)(F)F)c2)CC1`, the efficacy in the assay with HCT116 [1] is -39.8%. The same molecule had an AC50 cell viability in the assay with HCT116 [2] of 0.833 µM.

For the molecule `COc1cc2nc(N3CCCN(C)CC3)nc(NC3CCN(Cc4ccccc4)CC3)c2cc1OC`, the efficacy with HCT116 [1] is -95.2%. The molecule also returned an AC50 cell viability in the assay on HCT116 [2] of 6.61 µM.

Regarding `COc1cc2nc(-c3cc(F)ccc3O)nc(N[C@@H]3CNC[C@H]3C(C)(C)O)c2cc1OC`, in the assay on HCT116 [1], the efficacy is -87.7%. In addition, the AC50 cell viability in the assay with HCT116 [2] turned out to be 3.72 µM.

As for `COCC(=O)NC/C=C/c1ccc2ncnc(Nc3ccc(Oc4ccc(C)nc4)c(C)c3)c2c1`, the efficacy in the assay on HCT116 [1] is -64.8%. Moreover, in the assay on HCT116 [2], the AC50 cell viability came out at 20.9 µM.

`Cc1nc([C@](C)(O)CO)sc1-c1cnc(N)c(O[C@H](C)c2cc(F)ccc2-n2nccn2)c1`: the efficacy in the assay with HCT116 [1] was -57.7%. Further, in the assay with HCT116 [2], the AC50 cell viability turned out to be 3.72 µM.

Turning to `CC(=O)N1c2ccc(-c3ccc(C(=O)O)cc3)cc2[C@H](Nc2ccc(Cl)cc2)C[C@@H]1C`, the efficacy in the assay with HCT116 [1] is -90.5%. Besides, the AC50 cell viability in the assay on HCT116 [2] was 0.833 µM.

For `C[N]1C=C(C=N1)C2=C3\C=N/NC(=O)C4=C3C(=CC(=C4)NC(=O)[C@H](N)C5CCCCC5)[NH]2`, the efficacy in the assay with HCT116 [1] is -67.8%. Also, the AC50 cell viability in the assay with HCT116 [2] was 16.6 µM.

Regarding `C/N=c1\ncc2cc(-c3cc(N/C(O)=N/CCC(C)(C)C)c(F)cc3C)c(C)nc2[nH]1`, the efficacy with HCT116 [1] was -82.1%. The molecule further yielded an AC50 cell viability with HCT116 [2] of 2.63 µM.

With `Nc1ncnc(Nc2ccc(OCc3ccccc3)c(Cl)c2)c1/C=N/OCCN1CCOCC1`, the efficacy in the assay on HCT116 [1] was -98%. The AC50 cell viability with HCT116 [2] amounted to 26.3 µM.

`Nc1ncnc2c1c(COc1cccc(Cl)c1)nn2C1CCOCC1`: in the assay with HCT116 [1], the efficacy is -37.2%. Also, the AC50 cell viability with HCT116 [2] is 18.6 µM.

On to `O=C(O)c1ccc(O)c2ncc(N3CCOCC3)cc12`, for which the efficacy with HCT116 [1] is -43%. For the same molecule, the AC50 cell viability in the assay with HCT116 [2] worked out at 23.5 µM.

Regarding `Oc1cc(-c2nc(-c3ccccc3)[nH]c2-c2ccncc2)ccc1Cl`, the efficacy with HCT116 [1] was -90.3%. In the assay with HCT116 [2], this molecule returned an AC50 cell viability of 4.17 µM.

As to `O=C(CC12CC3CC(CC(C3)C1)C2)Nc1cccc2nc(NCCNCCO)ccc12`, the efficacy in the assay with HCT116 [1] was -101%. The molecule also returned an AC50 cell viability in the assay on HCT116 [2] of 26.3 µM.

In the case of `O=C(Nc1ncc(SCCN2CCCC2)s1)[C@]1(c2ccc([S+](=O)([O-])C3CC3)cc2)C[C@H]1C1CCCCC1`, the efficacy in the assay with HCT116 [1] was -95.8%. The AC50 cell viability with HCT116 [2] worked out at 18.6 µM.

For the origin of these results see the supplement of paper PMC10290057.
